Patent US20250154212A1, “METHOD OF DISRUPTING MEMORY AND LIPOPEPTIDE FOR USE IN SUCH METHOD” (The Research Foundation for The State University of New York, priority 2023, published 2025)
Entries after “also recorded” stand apart in the source; their conditions may differ. Where no end group is shown, it is not given here. The star is where a group is joined. Myristoyl = CCCCCCCCCCCCCC(=O)*

System: spatial long-term memory
Test: Active place avoidance, intrahippocampal injection, wild-type mice
Type: in vivo, mouse
Conditions: for spatial memory retention (time to first enter shock zone), 3-day memory: 5 nmol in 0.5 μl per hippocampus 1 day after conditioning; for learning and retention of a new memory (place avoidance in Context B): conditioned 2 days after injection, retention 3 days later
Description: For spatial long-term memory experiments, we adapted the approach used in Garcia-Osta et al. (82). Mice were ˜12-weeks old at surgery. Briefly, to implant the injection cannula hardware, mice were anesthetized by an intraperitoneal (i.p.) injection of a mixture of dexmedetomidine ([…] body weight) and ketamine (28 mg/kg body weight), and mounted in a Kopf stereotaxic frame (Tujunga, CA). The tips of guide cannula (Plastics One, Roanoke, VA; Part Numbers: C235GS-5-2.0) were targeted above the injection target in the dorsal hippocampus (AP-1.94 mm; ML±1.00 mm; DV-0.90 mm). The other injection hardware (Part Numbers: C235DCs-5, 303DC/1; cannula dummy, cannula cap, respectively) was assembled, and antisedan (0.65 mg/kg body weight i.p.) was administered to reverse the sedation at the end of surgery.
Three to four weeks after surgery, the animals received active place avoidance training. Before testing the effect of the drug injection on place avoidance, the animals received a bilateral injection of vehicle (PBS [pH 7.4] 0.5 μl/side) and were left in the home cage to habituate to the procedure. Depending on the experimental design, injection of vehicle or drug, either ζ-stat or K-ZAP (5 nmol in 0.5 μl PBS/side), is 1 day or 4 weeks after the training session. During the injection, the animals were restrained, the cannula cap and dummy removed, and the injection needle (Plastics One, Roanoke, VA; Part Numbers: C235IS-5) inserted into the guide cannula so that it protruded from the end of the guide by 0.5 mm. The other end of the needle was connected to a 10 μl Hamilton syringe via Tygon tubing. The drug or vehicle was infused for 1 min, and after the infusion the needle was left in place for 5 min before removal. The animals were then returned to their home cages until the memory retention tests that were conducted 2 days later.
Active place avoidance was conducted with a commercial computer-controlled system (Bio-Signal Group, Acton, MA). The mouse was placed on a 40-cm diameter circular arena rotating at 1 rpm. The specialized software, Tracker (Bio-Signal Group, Acton, MA), was used to detect the animal's position 30 times per second by video tracking from an overhead camera. A clear wall made from polyethylene terephthalate glycol-modified (PET-G) was placed on the arena to prevent the animal from jumping off the elevated arena surface. A 5-pole shock grid was placed on the rotating arena, and the shock was scrambled across the 5-poles when the mouse entered the shock zone. All experiments used the “Room+Arena−” task variant that challenges the mouse on the rotating arena to avoid a shock zone that was a stationary 60° sector (7). Every 33 ms, the software determined the mouse's position, whether it was in the shock zone, and whether to deliver shock. After the animal enters the shock zone for 500 ms, a constant current foot-shock (60 Hz, 500 ms) was delivered and repeated with the interval of 1500 ms until the mouse left the shock zone. The shock intensity was 0.2 or 0.3 mA, which was the minimum amplitude to elicit flinch or escape responses. The animal was forced to actively avoid the designated shock zone because the arena rotation periodically transported it into the shock area.
The tracked animal positions with timestamps were analyzed offline (TrackAnalysis, Bio-Signal Group, Acton, MA) to extract several end-point measures. The time to first enter the shock zone estimates ability to avoid shock and was taken as an index of between-session memory. The number of entrances within one trial was taken as another index to examine the animal learning curve throughout all training trials. A pretraining habituation period on the apparatus equivalent in time to a training session, but without shock, was provided.
The training schedule was as follows: 2 h after a 30-min pretraining habituation, the animals received three 30-min training trials, with an intertrial interval of 2 h. […]

Compound	spatial memory retention (time to first enter shock zone), 3-day memory (tested 2 days post-injection)	spatial memory retention (time to first enter shock zone), 3-day memory (tested 2 days post-injection, listed as z-stat)	learning and retention of a new memory (place avoidance in Context B)	learning and retention of a new memory (place avoidance in Context B) (listed as z-stat)	remote spatial memory retention, 30-day memory (5 nmol in 0.5 μl/side injected 4 weeks after training, tested 2 days post-injection)
O=S(=O)(O)c1cc(O)c2c(S(=O)(=O)O)cc(S(=O)(=O)O)cc2c1 [ζ-stat, 1-naphthol-3,6,8-trisulphonic acid]	persistent loss of retention	disrupts spatial memory retention; also recorded: disrupt memory retention for the established memory	learn to avoid and remember a new second location as well as the mice that had received only vehicle	do not disrupt learning or retention of a new memory	
myr-N-FVRNSLERRSVRMKRPS-C (Myristoyl-FVRNSLERRSVRMKRPS) [K-ZAP]	disrupts established spatial long-term memory retention; also recorded: loss of memory retention				disrupts remote spatial memory; also recorded: loss of memory retention 30 days post-training
